Data set [1] can be described thus: Acute toxicity, oral dosage to mice, LD50. As to conditions: mouse, in vivo, single dose suspended in 0.1% P-1570, ICR female mice, observed 21 days. From the text:
Each test compound suspended in 0.1% P-1570 was orally and forcedly dosed through a gastric probe to ICR female mice (21 - 22g, age of about 5 weeks). An identification number was given to each mouse, and weighing and observation on general behaviour were done just before the dosage and each day after the same. Each dead mouse was subjected without delay to an autopsy to check the same, more particularly in detail on enterona. All living mice were killed at the 21st day from the dosage to carry out an autopsy for checking the same, more particularly on the entrails.
An LD50 was calculated in accordance with Leed.and Munch's method.

Data set [2] concerns B-16 melanoma. Briefly: Anti-tumor action to B-16 melanoma transplanted under skin of mice. The settings on record: Mus musculus, B16, 504 h, 5th and 9th day, tumor weight at 21st day, read-out: Inhibition Ratio (%); for inhibition in vivo at 250 mg/kg: 250 mg/kg/day x 3, oral at 1st; for inhibition in vivo at 500 mg/kg: 500 mg/kg/day x 3, oral at 1st; for inhibition in vivo at 125 mg/kg: 125 mg/kg/day x 3, oral at 1st. It is filed as in vivo, BDF1 female mice. From the text:
A cancer cell of B-16 melanoma (1 x 10^5 cells) was transplanted under skin of BDF1 female mice (age of about 5 weeks), and each of testing compounds was orally dosed at lst, 5th and 9th day after the transplantation. At 21st day after the transplantation, the mice were killed to measure a weight of the formed cancerous tumor and to finally determine an inhibition ratio due to the dosage of the test compound.

The subject of data set [3] is colon-38 carcinoma. The data set is described as follows: Anti-tumor action to colon-38 carcinoma transplanted under skin of mice. The settings on record: 5th and 9th day, tumor weight at 28th day vs non-treated control; for inhibition in vivo at 323 mg/kg: 323 mg/kg/day x 3, oral at 1st; for inhibition in vivo at 338 mg/kg: 338 mg/kg/day x 3, oral at 1st. It is filed as in vivo, BDF1 female mice. On the procedure: 0.02 ml of 10(W/V) cell suspension prepared from a solid cancer cell (colon-38 carcinoma) was transplanted under skin of BDF1 female mice (20 - 21g, age of about 5 weeks), and each test compound was orally dosed at lst, 5th and 9th day after the transplantation. major and minor axes of the forming cancerous tumor were measured at llth, 14th, 18th, 21st, 25th and 28th day after the transplantation to calcuate the volume ofthe cancerous tumor in accordance with the equation: [formula] • wherein L: major axis (mm) • W: minor axis (mm)
At 28th day from the transplantation, the mice were killed and each of the cancerous tumors was enucleated to measure its weight and to determine an inhibition ratio in comparison with that in a non-treated control group.

The mark [4] stands for this setting: Mus musculus, 672 h, read-out: Inhibition Ratio (%).

The structures appear in SMILES notation.

Broadly, the LD50 is the dose at which mortality reaches 50%. High values mean a less toxic substance, low ones a more toxic substance. Turning to `CC(C)[Si](C)(C)CCCSCCCN` [Example 8, 3-[[3-(Isopropyldimethylsilyl)propyl]thio]propylamine], the LD50 at 504 h in data set [1] is more than 1500 mg/kg. In addition, in data set [2], the inhibition in vivo at 250 mg/kg worked out at 61.1% and the inhibition in vivo at 500 mg/kg came to 46.3%.

Take `CCCC[Si](C)(C)CCCSCCCN` [Example 10, 3-[[3-(n-Butyldimethylsilyl)propyl)thio)propylamine]: the LD50 at 504 h in data set [1] was more than 1500 mg/kg. In data set [2], the inhibition in vivo at 250 mg/kg worked out at 50.4% and the inhibition in vivo at 500 mg/kg was determined as 29.8%.

On to `CC(C)[Si](C)(C)CCSCCNC(=O)n1cc(F)c(=O)[nH]c1=O` [Reference Example 2, 1-[2-[[2-(Dimethylisopropylsilyl)ethyl]thio]-ethylcarbamoyl]-5-fluorouracil], for which the inhibition in vivo at 289 mg/kg in data set [3] (Mus musculus, 672 h, 289 mg/kg/day x 3, oral at 1st, read-out: Inhibition Ratio (%)) was 89.8%. In data set [1], this compound yielded a 50% lethal dose (LD50) at 504 h of 1380 mg/kg. In addition, the inhibition in vivo at 300 mg/kg in data set [2] (300 mg/kg/day x 3, oral at 1st) came to 79.7%.

`CC(C)[Si](C)(C)CCSCCCN` [Example 5, 3-[[2-(Isopropyldimethylsilyl)ethyl]thio]propylamine]: in data set [1], the LD50 at 504 h was determined as 750 mg/kg. Moreover, in data set [2], the inhibition in vivo at 250 mg/kg amounted to 21.4% and the inhibition in vivo at 500 mg/kg came to 50.6%.

For `CCCCCCCC[Si](C)(C)CCSCCNC(=O)n1cc(F)c(=O)[nH]c1=O` [Reference Example 1, 1-[2-[[2-dimethyl-n-octylsilylethyl)thio]ethylcarbamoyl]-5-fluorouracil], the inhibition in vivo at 345 mg/kg in data set [3] (Mus musculus, 672 h, 345 mg/kg/day x 3, oral at 1st, read-out: Inhibition Ratio (%)) was 80%. The compound also showed a 50% lethal dose (LD50) at 504 h in data set [1] of 1580 mg/kg.

Regarding `CC(C)(C)[Si](C)(C)CCCSCCCNC(=O)n1cc(F)c(=O)[nH]c1=O` [compound 9, 1-{3-{[3-(t-Butyldimethylsilyl)propyl]thio}-propylcarbamoyl}-5-fluorouracil], in data set [3] (setting [4]), the inhibition in vivo at 323 mg/kg was 90.1%. In data set [1], this compound returned an LD50 at 504 h of 1800 mg/kg. In addition, in data set [2], the inhibition in vivo at 125 mg/kg was determined as 55.2% and the inhibition in vivo at 250 mg/kg worked out at 46.3%.

With `CC(C)(C)[Si](C)(C)CCCSCCCN` [Example 9, 3-[[3-(t-Butyldimethylsilyl)propyl]thio)propylamine], the LD50 at 504 h in data set [1] was more than 1500 mg/kg. Also, in data set [2], the inhibition in vivo at 250 mg/kg is 57.3% and the inhibition in vivo at 500 mg/kg stood at 51.9%.

As to `CCCC[Si](C)(C)CCSCCN` [Example 3, 2-[[2-(n-Butyldimethylsilyl)ethyl]thio]ethylamine], the LD50 at 504 h in data set [1] was more than 1500 mg/kg.

In data set [1], `CC(C)[Si](C)(C)CCSCCN` [Example 2, Z-([2-(Isopropyldimethylsilyl)ethyl]thio]ethylamine] yielded an LD50 at 504 h of 1620 mg/kg. Moreover, in data set [2], the inhibition in vivo at 250 mg/kg came out at 23.8% and the inhibition in vivo at 500 mg/kg turned out to be 36.1%.

For the compound `CC(C)[Si](C)(C)CCCSCCNC(=O)n1cc(F)c(=O)[nH]c1=O` [compound 6, 1-[2-[[3-(Dimethylisopropylsilyl)propyl]thio]-ethylcarbamoyl]-5-fluorouracil], the inhibition in vivo at 338 mg/kg in data set [3] (setting [4]) was found to be 95.9%. The compound further came in with an LD50 at 504 h in data set [1] of 1820 mg/kg.

As to `CC(C)(C)[Si](C)(C)CCCSCCN` [Example 7, 2[[3-(t-Butyldimethylsilyl)propyl]thio]ethylamine], the LD50 at 504 h in data set [1] is more than 1500 mg/kg. Besides, in data set [2], the inhibition in vivo at 250 mg/kg is 50% and the inhibition in vivo at 500 mg/kg is 32.7%.

In the case of `CCCCCCCC[Si](C)(C)CCSCCN` [Example 1, 2-[[2-(Dimethyl-n-octylsilyl)ethyl]thio]ethylamine], the LD50 at 504 h in data set [1] was more than 1500 mg/kg.

As for `C[Si](CCSCCNC(=O)n1cc(F)c(=O)[nH]c1=O)(c1ccccc1)c1ccccc1` [compound 4, 1-[2-[[2-(Diphenylmethylsilyl)ethyl]thio]-ethylcarbamoyl]-5-fluorouracil], the “Inhibition Ratio (%)” value in data set [3] (366 mg/kg/day x 3, oral at 1st) was found to be 32.2%. Besides, in data set [1], the LD50 at 504 h amounted to 1400 mg/kg.

As to `CC(C)[Si](C)(C)CCCSCCCNC(=O)n1cc(F)c(=O)[nH]c1=O` [compound 8, 1-{3-{[3-(Dimethylisopropylsilyl)propyl]thio}-propylcarbamoyl}-5-fluorouracil], the inhibition in vivo at 350 mg/kg in data set [3] (Mus musculus, 672 h, 350 mg/kg/day x 3, oral at 1st, read-out: Inhibition Ratio (%)) is 90.3%. This compound displayed an LD50 at 504 h in data set [1] of 2120 mg/kg. In data set [2], the inhibition in vivo at 125 mg/kg was 32.8% and the inhibition in vivo at 250 mg/kg was 45.7%.

Compound `C[Si](C)(CCCSCCCN)c1ccccc1` [Example 11, 3[[3-(Dimethylphenylsilyl)propyl]thio]propylamine] displayed an LD50 at 504 h in data set [1] of more than 1500 mg/kg. Further, in data set [2], the inhibition in vivo at 250 mg/kg was 38.7% and the inhibition in vivo at 500 mg/kg stood at 45.4%.

As to `CCCC[Si](C)(C)CCCSCCCNC(=O)n1cc(F)c(=O)[nH]c1=O` [compound 10, 1-{3-{[3-(n-Butyldimethylsilyl)propyl]thio}-propylcarbamoyl}-5-fluorouracil], the inhibition in vivo at 323 mg/kg in data set [3] (setting [4]) was determined as 92.3%. This compound also came in with an LD50 at 504 h in data set [1] of 1850 mg/kg. For the same compound, in data set [2], the inhibition in vivo at 125 mg/kg is 69.5% and the inhibition in vivo at 250 mg/kg is 88.5%.

In the case of `CC(C)(C)[Si](C)(C)CCCSCCNC(=O)n1cc(F)c(=O)[nH]c1=O` [compound 7, 1-{2-{[3-(Dimethyl-t-butylsilyl]propyl)thio}-ethylcarbamoyl}-5-fluorouracil], the inhibition in vivo at 311 mg/kg in data set [3] (Mus musculus, 672 h, 311 mg/kg/day x 3, oral at 1st, read-out: Inhibition Ratio (%)) worked out at 81%. In data set [1], this compound had a 50% lethal dose (LD50) at 504 h of 1380 mg/kg. Besides, in data set [2], the inhibition in vivo at 250 mg/kg worked out at 43.1%.

The compound `C[Si](CCSCCN)(c1ccccc1)c1ccccc1` [Example 4, 2-[[2-(Methyldiphenylsilyl)ethyl]thio)ethylamine] gave a median lethal dose (LD50) at 504 h in data set [1] of more than 1500 mg/kg.

Take `C[Si](C)(CCCSCCCNC(=O)n1cc(F)c(=O)[nH]c1=O)c1ccccc1` [compound 11, 1-{3-{[3-(Dimethylphenylsilyl)propyl]thio}-propylcarbamoyl}-5-fluorouracil]: the inhibition in vivo at 339 mg/kg in data set [3] (Mus musculus, 672 h, 339 mg/kg/day x 3, oral at 1st, read-out: Inhibition Ratio (%)) amounted to 97.9%. The LD50 at 504 h in data set [1] turned out to be 1800 mg/kg. In data set [2], the inhibition in vivo at 125 mg/kg was found to be 82.2% and the inhibition in vivo at 250 mg/kg came to 70.5%.

With `CC(C)[Si](C)(C)CCSCCCNC(=O)n1cc(F)c(=O)[nH]c1=O` [compound 5, 1-[3-[[2-(Dimethylisopropylsilyl)ethyl]thio]-propylcarbamoyl]-5-fluorouracil], the inhibition in vivo at 338 mg/kg in data set [3] (setting [4]) worked out at 98.4%. The compound further gave an LD50 at 504 h in data set [1] of 2250 mg/kg. In addition, in data set [2], the inhibition in vivo at 125 mg/kg amounted to 17.6% and the inhibition in vivo at 250 mg/kg was found to be 19.4%.

On to `CC(C)[Si](C)(C)CCCSCCN` [Example 6, Z-[[3-(Isopropyldimethylsilyl)propyl]thio]ethylamine], for which the LD50 at 504 h in data set [1] was 1500 mg/kg.

Regarding `CCCC[Si](C)(C)CCSCCNC(=O)n1cc(F)c(=O)[nH]c1=O` [compound 3, 1-[2-[[2-(Dimethyl-n-butylsilyl)ethyl]thio]-ethylcarbamoyl]-5-fluorouracil], the inhibition in vivo at 300 mg/kg in data set [3] (Mus musculus, 672 h, 300 mg/kg/day x 3, oral at 1st, read-out: Inhibition Ratio (%)) was 81.2%. This compound also had a median lethal dose (LD50) at 504 h in data set [1] of 1380 mg/kg.
